Test results published in patent US20060199172A1, “Laminated cell culture containing hepatocytes and method for detecting endocrine-like substance” (FUJI PHOTO FILM CO., LTD., priority 2005, published 2006).

Legend:
rat primary hepatocytes = test: AST release into the medium from cultured hepatocytes after adding the substance; type: cell-based; details: 0.1 μg/ml, measured over time
Protocol: Rat primary hepatocytes (collected by the method described in “Techniques of Tissue Culture, Second edition”, Ed. by Japan Tissue Culture Association, Asakura Publishing, p. 135) were inoculated on a 12-well microplate (FALCON, No. 3505) in an amount of 50000 cells/well and cultured for 24 hours under the conditions of 37° C. and 5% CO2. Separately, the carrier for cell culture prepared in Example 1 was adhered to bottom of a 20-mm petri dish (FALCON, No. 2163) with a small amount of sterilized water. 20,000 cells of rat vascular endothelial cells A-10 (Dainippon Pharmaceutical Co., Ltd.) were inoculated on the carrier for cell culture and cultured for 72 hours under the conditions of 37° C. and 5% CO2. As the medium, 10% FBS Eagle's MEM medium (GIBCO) was used for both cultures. The rat vascular endothelial cell culture obtained was carefully placed on the aforementioned rat primary hepatocytes on the 12-well microplate so that the cell growing side contacted with the rat primary hepatocytes, and cultured for 24 hours under the conditions of 37° C. and 5% CO2. […]
The laminated cell culture prepared in Example 2 and the hepatocytes cultured as monolayer culture was added with 0.1 μg/ml of chloropramazine, and the amount of AST released into the medium was measured over time.

MCF-7 cells = test: Detection of endocrine-like substance by number of MCF-7 cells in the laminated cell culture system; type: cell-based; details: laminated cell culture system (MCF-7 + rat primary hepatocytes + rat vascular endothelial cells), 0.1 μg/ml, 14 days; compared with MCF-7 only and monolayer hepatocytes + MCF-7
Protocol: 40,000 of estrogen-like substance detection cells (MCF-7) were inoculated on a 12-well microplate and cultured for 7 days under the conditions of 37° C. and 5% CO2 to prepare an MCF-7 cell layer.
The carrier for cell culture prepared in Example 1 was adhered to bottom of a 20-mm petri dish (FALCON, No. 2163) with a small amount of sterilized water, and 40,000 cells of rat primary hepatocytes (collected by the method described in “Techniques of Tissue Culture, Second edition”, Ed. by Japan Tissue Culture Association, Asakura Publishing, p. 135) were inoculated on the carrier for cell culture and cultured for 24 hours under the conditions of 37° C. and 5% CO2. In the same manner, 20,000 cells of rat vascular endothelial cells A-10 (Dainippon Pharmaceutical Co., Ltd.) were inoculated on the carrier for cell culture prepared in Example 1 and cultured for 72 hours under the conditions of 37° C. and 5% CO2.
The rat primary hepatocyte cell culture obtained was carefully placed on the MCF-7 cell layer on the 12-well microplate so that the side of the growth of the rat primary hepatocyte was on the side of the MCF-7 cells, and cultured for 24 hours under the conditions of 37° C. and 5% CO2. […]

rat uterus = details: in vivo; cited from earlier work

SMILES | amount of AST released into the medium (rat primary hepatocytes; laminated cell culture (rat primary hepatocytes + rat vascular endothelial cells A-10)) | amount of AST released into the medium (rat primary hepatocytes; primary hepatocytes cultured as monolayer culture) | number of MCF-7 cells (MCF-7 cells) | rat uterus proliferation test result (rat uterus)
CN(C)CCCN1c2ccccc2Sc2ccc(Cl)cc21 [chloropramazine] | increase in the amount of AST was observed | AST was not detected | – | –
CC(C)c1cc(C(C)C)c2ccccc2c1 [2,4-diisopropylnaphthalene] | – | – | maximum value | positive
